Source: BindingDB's records for doi:10.1016/j.chembiol.2005.02.007 (Stanford University, 2005)
pKi: −log10 of the molar value.

Target: T1, Protein-glutamine gamma-glutamyltransferase 2 (Homo sapiens, UniProt P21980)
T1 sequence (P21980 whole entry): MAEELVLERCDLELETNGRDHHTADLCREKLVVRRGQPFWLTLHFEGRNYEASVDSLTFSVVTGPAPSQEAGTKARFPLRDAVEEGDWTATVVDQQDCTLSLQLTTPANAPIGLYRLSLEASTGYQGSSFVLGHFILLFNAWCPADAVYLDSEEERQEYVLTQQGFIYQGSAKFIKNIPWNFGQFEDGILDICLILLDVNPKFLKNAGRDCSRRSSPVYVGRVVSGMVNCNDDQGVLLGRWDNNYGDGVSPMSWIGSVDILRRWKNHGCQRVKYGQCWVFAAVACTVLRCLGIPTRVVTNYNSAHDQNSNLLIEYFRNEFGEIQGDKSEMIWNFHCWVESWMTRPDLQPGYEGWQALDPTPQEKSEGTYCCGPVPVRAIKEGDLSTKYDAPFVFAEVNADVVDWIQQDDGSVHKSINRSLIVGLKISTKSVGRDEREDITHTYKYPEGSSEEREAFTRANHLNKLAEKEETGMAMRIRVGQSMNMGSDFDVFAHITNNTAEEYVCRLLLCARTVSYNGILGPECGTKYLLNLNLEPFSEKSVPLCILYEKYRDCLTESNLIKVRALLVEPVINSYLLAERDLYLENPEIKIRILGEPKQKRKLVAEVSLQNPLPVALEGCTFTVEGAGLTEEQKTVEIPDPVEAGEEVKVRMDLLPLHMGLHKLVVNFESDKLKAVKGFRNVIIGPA
Test: TG Inhibition Assay
Settings: pH 7.2
Excerpt: Recombinant of human TG2 was expressed in E.coli and purified to >90% homogeneity.

Row | pKi | Compound
1 | 3.51 | O=C(N[C@@H](Cc1c[nH]c2ccc(O)cc12)C(=O)NCC1CC(Br)=NO1)OCc1ccccc1 (some centres undefined) [Dihydroisoxazole, 1f]
2 | 4.21 | O=C(N[C@@H](Cc1ccccc1)C(=O)NCC1CC(Br)=NO1)OCCc1ccccc1 (some centres undefined) [Dihydroisoxazole, 3d]
3 | 4.37 | O=C(N[C@@H](Cc1ccccc1)C(=O)NCC1CC(Br)=NO1)Oc1ccc2ccccc2c1 (some centres undefined) [Dihydroisoxazole, 3e]
4 | 4.06 | O=C(N[C@@H](Cc1ccccc1)C(=O)NCC1CC(Br)=NO1)OCC1=Cc2ccccc2S1(=O)=O (some centres undefined) [Dihydroisoxazole, 3f]
